From patent publication US20160213742A1, “COMPOSITIONS AND METHODS FOR THE TREATMENT OF FUNGAL INFECTIONS” (priority 2013, published 2016) come the findings set out here.

What all share (experiment): MEC assay (Example 31)
What all share (format): cell-based
Common to all, as to conditions: RPMI pH 7.0, 35° C., 24-48 hr

One assay deals with A. flavus MX 5948. An outline of the steps: (§1)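 Broth microdilution in CLSI-prepared RPMI, pH 7.0, with serial 2-fold drug dilutions; final DMSO 1.25% for investigational agents. Candida inoculum from 0.5 McFarland diluted 1:100; Aspergillus at ~0.2-2.5×10^4 CFU/mL. Incubated 35° C. ~24-48 hr; MIC at visible growth inhibition, MEC at compact rounded hyphal form.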
For a further assay, the system named is A. fumigatus MX 5944. Summed up:
as §1

For a further assay, the system named is A. fumigatus MYA-3626. An outline of the steps: as §1
The subject of another assay is A. fumigatus MYA-4609. Summed up:
as §1

A further assay deals with A. fumigatus ATCC 13073. Summed up: as §1

Turning to `CC[C@H](C)C[C@H](C)CCCCCCCCC(=O)N[C@H]1C[C@@H](O)[C@@H](NCCN)NC(=O)[C@@H]2[C@@H](O)CCN2C(=O)[C@H]([C@H](O)CCNC(=O)[C@H](Cc2ccccc2)NC(=O)[C@H](CC(C)C)NC(=O)[C@H](CCSC)NC=O)NC(=O)[C@H]([C@H](O)[C@@H](O)c2ccc(O)cc2)NC(=O)[C@@H]2C[C@@H](O)CN2C(=O)[C@H]([C@@H](C)O)NC1=O` [Compound 1], the MEC in the assay on A. flavus MX 5948 was in the range of 0.12 to 1 µg/mL; in the assay with A. fumigatus MX 5944, 0.12 to 0.5 µg/mL; in the assay on A. fumigatus MYA-3626 it was 0.25 to 0.5 µg/mL; with A. fumigatus MYA-4609, 0.12 to 1 µg/mL; with A. fumigatus ATCC 13073, 0.12 to 2 µg/mL.

As for `CC[C@H](C)C[C@H](C)CCCCCCCCC(=O)N[C@H]1C[C@@H](O)[C@@H](OCCN)NC(=O)[C@@H]2[C@@H](O)CCN2C(=O)[C@H]([C@H](O)CCNC(=O)[C@H](Cc2ccccc2)NC(=O)[C@H](CC(C)C)NC(=O)[C@H](CCSC)NC=O)NC(=O)[C@H]([C@H](O)[C@@H](O)c2ccc(O)cc2)NC(=O)[C@@H]2C[C@@H](O)CN2C(=O)[C@H]([C@@H](C)O)NC1=O` [Compound 11], the MEC was 0.06 µg/mL in the assay on A. flavus MX 5948; 0.12 µg/mL with A. fumigatus MX 5944; 0.06 to 0.12 µg/mL with A. fumigatus MYA-3626; 0.06 µg/mL in the assay on A. fumigatus MYA-4609; “≦0.06-0.06 μg/mL” in the assay with A. fumigatus ATCC 13073.

Regarding “caspofungin acetate [reference compound]”, the MEC entry is “≦0.015-0.06 μg/mL” with A. flavus MX 5948; 0.03 to 0.12 µg/mL in the assay with A. fumigatus MX 5944; “≦0.03-0.12 μg/mL” in the assay on A. fumigatus MYA-3626; “≦0.03-1^ μg/mL” with A. fumigatus MYA-4609; “≦0.03-0.06 μg/mL” in the assay with A. fumigatus ATCC 13073.
